Measured values from the supplement of paper PMC10307832.

Columns and labels:
Assay in all cases: relative viability (nuclei count vs DMSO), 5 days (fraction); higher = more cells survive
[1] = compound: COc1cc(-c2nn([C@H]3CC[C@H](N4CCN(C(C)=O)CC4)CC3)c3ncnc(N)c23)ccc1NC(=O)c1cc2ccccc2n1C + COc1cc2c(Oc3ccc(NC(=O)C4(C(=O)Nc5ccc(F)cc5)CC4)cc3F)ccnc2cc1OCCCN1CCOCC1 [Foretinib] (partner 0.25 µM)
Outline: (§1)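 Lung cancer cell lines were seeded in 1536-well plates and dosed by pin tool the next day, with either a single drug or a fixed anchor-drug dose combined with five library-drug doses (not always all listed) spaced in √10 steps. Five days later, one step fixed the cells and stained their nuclei (final 0.05% Triton X-100, 1% formaldehyde, 1 ug/ml Hoechst), and nuclei were counted on 4× images. Relative viability is the nuclei count in treated wells divided by the count in vehicle wells, and each value is the median of duplicate plates.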

Midostaurin + Pemetrexed = compound: CO[C@@H]1[C@H](N(C)C(=O)c2ccccc2)C[C@H]2O[C@]1(C)n1c3ccccc3c3c4c(c5c6ccccc6n2c5c31)C(=O)NC4 [Midostaurin] + Nc1nc2[nH]cc(CCc3ccc(C(=O)N[C@@H](CCC(=O)O)C(=O)O)cc3)c2c(=O)[nH]1 [Pemetrexed] (partner 0.2 µM)
Outline: as §1

[2] = compound: COc1cc(-c2nn([C@H]3CC[C@H](N4CCN(C(C)=O)CC4)CC3)c3ncnc(N)c23)ccc1NC(=O)c1cc2ccccc2n1C + Cc1cc(Nc2cc(N3CCN(C)CC3)nc(Sc3ccc(NC(=O)C4CC4)cc3)n2)n[nH]1 [Tozasertib] (partner 0.1 µM)
Outline: as §1

[3] = compound: COc1cc(-c2nn([C@H]3CC[C@H](N4CCN(C(C)=O)CC4)CC3)c3ncnc(N)c23)ccc1NC(=O)c1cc2ccccc2n1C + O=C(c1cc(Cc2n[nH]c(=O)c3ccccc23)ccc1F)N1CCN(C(=O)C2CC2)CC1 [Olaparib] (partner 8 µM)
Outline: as §1

[4] = compound: COc1cc(-c2nn([C@H]3CC[C@H](N4CCN(C(C)=O)CC4)CC3)c3ncnc(N)c23)ccc1NC(=O)c1cc2ccccc2n1C + CCNC(=O)c1noc(-c2cc(C(C)C)c(O)cc2O)c1-c1ccc(CN2CCOCC2)cc1 [Luminespib] (partner 0.01 µM)
Outline: as §1

Cell Line	relative viability ([1]; first compound 0.0128 µM)	relative viability ([1]; first compound 0.04048 µM)	relative viability ([1]; first compound 0.128 µM)	relative viability ([1]; first compound 1.28 µM)	relative viability (Midostaurin + Pemetrexed; first compound 0.01 µM)	relative viability (Midostaurin + Pemetrexed; first compound 0.03162 µM)	relative viability (Midostaurin + Pemetrexed; first compound 0.1 µM)	relative viability (Midostaurin + Pemetrexed; first compound 0.3162 µM)	relative viability ([2]; first compound 0.0128 µM)	relative viability ([2]; first compound 0.04048 µM)	relative viability ([2]; first compound 0.128 µM)	relative viability ([2]; first compound 1.28 µM)	relative viability ([3]; first compound 0.0128 µM)	relative viability ([3]; first compound 0.04048 µM)	relative viability ([3]; first compound 0.128 µM)	relative viability ([3]; first compound 1.28 µM)	relative viability ([4]; first compound 0.0128 µM)	relative viability ([4]; first compound 0.04048 µM)	relative viability ([4]; first compound 0.128 µM)	relative viability ([4]; first compound 1.28 µM)
NCI-H2342	0.958	1.11	0.914	0.731	0.785	0.72	0.794	0.73	0.595	0.523	0.491	0.303	0.511	0.423	0.388	0.371	0.723	0.717	0.87	0.61
HCC-15	1.13	1.09	0.94	0.877	0.22	0.229	0.238	0.199	0.332	0.473	0.331	0.247	0.745	0.77	0.719	0.651	0.818	0.302	0.224	0.23
A-427	1.03	–	0.988	0.884	1.04	0.888	0.94	1.08	0.221	–	0.222	0.185	0.768	0.737	0.782	0.754	1.16	0.867	0.895	0.794
NCI-H2228	0.92	1.05	0.825	0.622	0.35	0.343	0.313	0.334	0.273	0.242	0.22	0.157	0.711	0.948	0.567	0.459	0.184	0.145	0.141	0.115
NCI-H1734	0.877	0.683	0.897	0.536	0.421	0.405	0.446	0.456	0.293	0.234	0.253	0.201	0.621	0.562	0.649	0.539	0.219	0.19	0.16	0.172
PC-14	0.956	1.06	0.885	0.979	0.123	0.125	0.118	0.111	0.562	0.688	0.559	0.636	0.231	0.349	0.283	0.343	0.196	0.138	0.232	0.121
NCI-H1915	1.14	1.03	1.06	0.844	0.46	0.472	0.506	0.477	0.443	0.44	0.384	0.317	0.273	0.285	0.262	0.248	0.877	0.691	0.625	0.678
NCI-H1666	0.971	0.881	0.957	0.947	0.876	0.812	0.74	0.722	0.619	0.67	0.593	0.587	0.763	0.793	0.793	0.827	0.926	0.994	1.01	1.04
HCC-366	0.948	0.841	0.98	0.757	0.156	0.15	0.153	0.156	0.114	0.0717	0.0637	0.0555	0.394	0.328	0.361	0.252	–	–	–	–
SK-MES-1	0.894	1.14	0.986	1	0.856	0.826	0.885	0.854	0.906	1.01	0.827	0.936	0.79	0.873	0.672	0.587	0.686	0.928	0.791	0.375
SW 1573	0.808	0.869	0.887	0.728	0.843	0.957	0.849	0.752	0.201	0.108	0.175	0.148	0.439	0.414	0.412	0.393	0.225	0.229	0.231	0.42
NCI-H661	1.16	1.13	1.01	1.03	0.915	0.82	0.902	0.904	0.362	0.381	0.346	0.34	0.817	0.843	0.724	0.763	0.901	1.08	0.948	0.946
PC-3 [JPC-3]	1.07	1.14	1	1.06	0.979	1.07	0.962	1.22	0.845	0.904	0.802	0.896	1.15	1.35	1.08	1.24	0.681	0.838	0.712	0.711
NCI-H1623	0.855	0.696	0.763	0.595	–	–	–	–	0.449	0.419	0.424	0.41	–	–	–	–	0.473	0.514	0.451	0.433
Calu-6	0.905	0.813	0.823	0.659	–	–	–	–	–	–	–	–	0.581	0.611	0.516	0.424	–	–	–	–
LC-2-ad	0.932	0.976	0.886	0.662	0.295	0.281	0.25	0.258	0.379	0.542	0.405	0.371	0.783	0.835	0.658	0.8	1.1	1.29	0.944	0.932
CAL-12T	1.13	1.06	1.31	1.12	1.19	1.19	1.28	0.765	0.29	0.275	0.221	0.178	0.682	0.763	0.811	0.697	0.281	0.417	0.348	0.267
RERF-LC-KJ	0.867	0.957	0.838	0.864	0.477	0.476	0.492	0.463	0.51	0.522	0.401	0.424	1.03	0.946	0.928	0.941	1.24	1.36	1.28	1.29
NCI-H1650	1.07	1.45	1.14	0.911	0.315	0.415	0.322	0.3	0.36	0.374	0.351	0.2	0.822	0.894	0.804	0.731	0.162	0.194	0.19	0.181

Cell Line	relative viability ([1]; first compound 0.0128 µM)	relative viability ([1]; first compound 0.04048 µM)	relative viability ([1]; first compound 0.128 µM)	relative viability ([1]; first compound 1.28 µM)	relative viability (Midostaurin + Pemetrexed; first compound 0.01 µM)	relative viability (Midostaurin + Pemetrexed; first compound 0.03162 µM)	relative viability (Midostaurin + Pemetrexed; first compound 0.1 µM)	relative viability (Midostaurin + Pemetrexed; first compound 0.3162 µM)	relative viability ([2]; first compound 0.0128 µM)	relative viability ([2]; first compound 0.04048 µM)	relative viability ([2]; first compound 0.128 µM)	relative viability ([2]; first compound 1.28 µM)	relative viability ([3]; first compound 0.0128 µM)	relative viability ([3]; first compound 0.04048 µM)	relative viability ([3]; first compound 0.128 µM)	relative viability ([3]; first compound 1.28 µM)	relative viability ([4]; first compound 0.0128 µM)	relative viability ([4]; first compound 0.04048 µM)	relative viability ([4]; first compound 0.128 µM)	relative viability ([4]; first compound 1.28 µM)
BEN	0.502	0.642	0.602	0.45	0.809	0.674	0.665	0.752	0.56	0.569	0.518	0.432	1.1	1.05	1.02	0.848	0.156	0.398	0.36	0.259
EMC-BAC-2	1.06	1.05	0.968	0.617	0.407	0.431	0.383	0.457	0.276	0.377	0.331	0.273	0.52	0.645	0.473	0.5	1.21	1.18	1.23	1.06
LU99A	0.96	0.895	0.857	0.821	0.182	0.165	0.167	0.224	0.281	0.28	0.274	0.252	0.284	0.29	0.286	0.263	0.261	0.251	0.261	0.277
ABC-1	0.967	0.953	1.05	0.881	–	–	–	–	0.151	0.205	0.176	0.154	0.6	0.835	0.665	0.806	0.546	0.612	–	0.332
NCI-H2170	1.09	1.01	0.991	0.97	0.297	0.268	0.265	0.266	0.805	0.738	0.688	0.639	0.72	0.615	0.595	0.541	0.663	0.79	0.669	0.373
NCI-H1299	1.13	1.23	1.14	1.08	–	–	–	–	–	–	–	–	0.978	1.01	0.914	1.01	–	–	–	–
EBC-1	0.104	0.0846	0.126	0.112	–	–	–	–	–	–	–	–	0.679	0.746	0.546	0.654	–	–	–	–
NCI-H2347	0.788	0.781	0.864	0.834	0.459	0.416	0.417	0.405	0.475	–	0.486	0.42	0.561	0.597	0.56	0.505	0.619	–	0.576	0.34
NCI-H1648	–	–	–	–	0.671	–	–	0.823	0.381	0.514	0.469	0.3	0.94	0.928	1.23	0.515	–	–	–	–
NCI-H1792	–	–	–	–	0.761	0.835	0.756	0.424	–	–	–	–	0.481	0.532	0.416	0.416	0.424	0.46	0.498	0.35
HCC-44	–	–	–	–	0.604	0.628	0.657	0.663	0.707	1.29	0.796	0.819	1.1	1.09	0.916	1.27	1.21	1.27	1.04	1.01
A549	0.927	0.991	0.969	0.935	–	–	–	–	–	–	–	–	0.302	0.47	0.465	0.271	–	–	–	–
NCI-H1563	0.913	0.997	0.936	0.685	0.681	0.748	0.749	0.809	–	–	–	–	–	–	–	–	0.535	0.55	0.525	0.5
NCI-H522	–	–	–	–	1.19	1.14	0.941	1.24	0.614	0.59	0.566	0.445	0.558	0.593	0.617	0.522	1.25	1.21	1.3	0.971
HCC-78	0.544	0.733	0.467	0.376	0.926	0.857	0.946	0.865	0.456	0.368	0.742	0.269	0.938	0.933	0.768	0.456	–	–	–	–
IA-LM	1.19	1.1	1.16	0.97	–	–	–	–	–	–	–	–	0.871	0.877	1.03	0.961	–	–	–	–
NCI-H1703	0.297	–	0.262	0.167	–	–	–	–	–	–	–	–	0.386	0.283	0.386	0.184	–	–	–	–
NCI-H727	0.915	–	0.831	0.587	–	–	–	–	0.65	–	0.581	0.477	0.674	–	0.819	0.78	0.417	–	0.343	0.236
